Results on 16 molecules are retold here after PubChem BioAssay AID248 (DTP/NCI, 2004).

Structures are written as SMILES. Where “and” joins values, the source holds several entries; their conditions need not be identical. Equal values may be shown once. Toxic doses and inconclusive results are not listed.

The test system of this experiment is L1210 leukemia ip in BDF1 mice, survival T/C. Put plainly: NCI In Vivo Anticancer Drug Screen. Data for tumor model L1210 Leukemia (intraperitoneal) in B6D2F1 (BDF1) mice. Conditions: endpoint: mean survival time, higher = longer survival. An outline of the steps: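 Tumor cells were implanted, animals were treated, and survival was followed. The result divides the treated measurement by the vehicle-control measurement.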

The mark [1] stands for this setting: dose: 25.0 mg/kg/injection, schedule: Q01DX001 (ip), vehicle: saline.
Setting [2] is: dose: 50.0 mg/kg/injection, schedule: Q01DX001 (ip), vehicle: saline.
Setting [3] is: dose: 400.0 mg/kg/injection, schedule: Q01DX001 (ip), vehicle: carboxymethylcellulose (CMC).
Where [4] appears, read: dose: 100.0 mg/kg/injection, schedule: Q01DX009 (ip), vehicle: Klucel (hydroxypropylcellulose) (HPC).
Setting [5] is: dose: 100.0 mg/kg/injection, schedule: Q04DX003 (ip), vehicle: Klucel (hydroxypropylcellulose) (HPC).
[6] abbreviates: dose: 200.0 mg/kg/injection, schedule: Q01DX009 (ip), vehicle: Klucel (hydroxypropylcellulose) (HPC).
[7] abbreviates: dose: 200.0 mg/kg/injection, schedule: Q04DX003 (ip), vehicle: Klucel (hydroxypropylcellulose) (HPC).
[8] abbreviates: dose: 400.0 mg/kg/injection, schedule: Q04DX003 (ip), vehicle: Klucel (hydroxypropylcellulose) (HPC).
The mark [9] stands for this setting: dose: 100.0 mg/kg/injection, schedule: Q01DX001 (ip), vehicle: carboxymethylcellulose (CMC).
Setting [10] is: dose: 100.0 mg/kg/injection, schedule: Q04DX002 (ip), vehicle: saline with Tween-80.
The mark [11] stands for this setting: dose: 200.0 mg/kg/injection, schedule: Q04DX002 (ip), vehicle: saline with Tween-80.
The mark [12] stands for this setting: dose: 400.0 mg/kg/injection, schedule: Q04DX002 (ip), vehicle: saline with Tween-80.

`CS(=O)(=O)Nc1ccc(Nc2c3ccccc3nc3ccccc23)cc1`: the T/C reads like this: (dose: 10.0 mg/kg/injection, schedule: Q01DX009 (sc), vehicle: saline) 108 % of control; (dose: 12.5 mg/kg/injection, schedule: Q01DX001 (ip), vehicle: saline) 101 % of control; (dose: 20.0 mg/kg/injection, schedule: Q01DX009 (ip), vehicle: saline) 161 % of control; (dose: 20.0 mg/kg/injection, schedule: Q01DX009 (sc), vehicle: saline) 116 % of control; under setting [1], 119 % of control; (dose: 40.0 mg/kg/injection, schedule: Q01DX009 (ip), vehicle: saline) 107 % of control. In addition, the T/C is, setting by setting: under setting [2], 104 % of control; (dose: 117.0 mg/kg/injection, schedule: Q01DX009 (ip), vehicle: carboxymethylcellulose (CMC)) 97 % of control; (dose: 176.0 mg/kg/injection, schedule: Q01DX001 (ip), vehicle: carboxymethylcellulose (CMC)) 151 % of control; (dose: 176.0 mg/kg/injection, schedule: Q01DX009 (ip), vehicle: carboxymethylcellulose (CMC)) 100 % of control; (dose: 240.0 mg/kg/injection, schedule: Q04DX003 (ip), vehicle: Klucel (hydroxypropylcellulose) (HPC)) 156 % of control; (dose: 264.0 mg/kg/injection, schedule: Q01DX001 (ip), vehicle: carboxymethylcellulose (CMC)) 161 % of control. Besides, the T/C is 158 % of control (dose: 266.0 mg/kg/injection, schedule: Q01DX001 (ip), vehicle: carboxymethylcellulose (CMC)); 150 % of control under setting [3]; 179 % of control and 253 % of control (dose: 600.0 mg/kg/injection, schedule: Q01DX001 (ip), vehicle: carboxymethylcellulose (CMC)).

Take `CCSc1nc(N)c(C(N)=O)cc1C#N`: the T/C is 95 % of control under setting [4]; 101 % of control under setting [5]; 95 % of control under setting [6]; 98 % of control under setting [7]; 97 % of control under setting [8].

For `CCOCc1c(COc2ccc(Cl)cc2)n(C)c2ccccc12`, the T/C is, setting by setting: (dose: 100.0 mg/kg/injection, schedule: Q04DX002 (ip), vehicle: saline) 98 % of control; (dose: 200.0 mg/kg/injection, schedule: Q04DX002 (ip), vehicle: saline) 98 % of control; (dose: 400.0 mg/kg/injection, schedule: Q04DX002 (ip), vehicle: saline) 104 % of control.

As for `CC(=O)OC1=CC(=O)c2ccccc2C1=O`, the T/C is 101 % of control (dose: 5.0 mg/kg/injection, schedule: Q01DX001 (ip), vehicle: carboxymethylcellulose (CMC)); 101 % of control (dose: 10.0 mg/kg/injection, schedule: Q01DX001 (ip), vehicle: carboxymethylcellulose (CMC)); 101 % of control (dose: 20.0 mg/kg/injection, schedule: Q01DX001 (ip), vehicle: carboxymethylcellulose (CMC)); 107 % of control (dose: 40.0 mg/kg/injection, schedule: Q01DX001 (ip), vehicle: carboxymethylcellulose (CMC)); 107 % of control (dose: 80.0 mg/kg/injection, schedule: Q01DX001 (ip), vehicle: carboxymethylcellulose (CMC)); 104 % of control under setting [9].

Regarding `O=C(O)c1[nH]c(=O)[nH]c(=O)c1N1CCCCC1`, the T/C runs as follows: (dose: 12.0 mg/kg/injection, schedule: Q01DX001 (ip), vehicle: saline) 106 % of control; under setting [1], 101 % of control; (dose: 25.0 mg/kg/injection, schedule: Q01DX009 (ip), vehicle: Klucel (hydroxypropylcellulose) (HPC)) 105 % of control; (dose: 50.0 mg/kg/injection, schedule: Q01DX009 (ip), vehicle: Klucel (hydroxypropylcellulose) (HPC)) 92 % of control.

For `O=C1CCN(Cc2ccccc2)C(=S)N1`, under “dose: 100.0 mg/kg/injection, schedule: Q01DX Z (ip), vehicle: methylcellulose (MC)”, the T/C was 93 % of control.

For `Cc1cccc(C)c1OCC1=NCCN1`, the T/C is, setting by setting: (dose: 12.0 mg/kg/injection, schedule: Q01DX009 (ip), vehicle: saline) 105 % of control; (dose: 25.0 mg/kg/injection, schedule: Q01DX009 (ip), vehicle: saline) 111 % of control; (dose: 50.0 mg/kg/injection, schedule: Q01DX009 (ip), vehicle: saline) 108 % of control.

Regarding `COc1ccc(CCC(C)=O)cc1`, the T/C by setting is: under setting [4], 96 % of control; under setting [5], 89 % of control; under setting [6], 105 % of control; under setting [7], 102 % of control; (dose: 400.0 mg/kg/injection, schedule: Q01DX009 (ip), vehicle: Klucel (hydroxypropylcellulose) (HPC)) 96 % of control; under setting [8], 98 % of control.

Regarding `N=C([Se])c1c(N)ncn1C1OC(CO)C(O)C1O` (stereo not given), the T/C (dose: 12.5 mg/kg/injection, schedule: Q01DX005 (ip), vehicle: saline) was 98 % of control; the T/C (dose: 25.0 mg/kg/injection, schedule: Q01DX005 (ip), vehicle: saline) was 94 % of control; the T/C (dose: 50.0 mg/kg/injection, schedule: Q01DX005 (ip), vehicle: saline) is 96 % of control.

Take `Cn1ccc(=O)c2cc([N+](=O)[O-])ccc21`: the T/C is 90 % of control (dose: 25.0 mg/kg/injection, schedule: Q01DX009 (ip), vehicle: water); 93 % of control (dose: 50.0 mg/kg/injection, schedule: Q01DX009 (ip), vehicle: water); 86 % of control (dose: 100.0 mg/kg/injection, schedule: Q01DX009 (ip), vehicle: water); 104 % of control and 106 % of control under setting [10]; 115 % of control and 90 % of control (dose: 100.0 mg/kg/injection, schedule: Q04DX003 (ip), vehicle: saline with Tween-80); 95 % of control (dose: 200.0 mg/kg/injection, schedule: Q01DX009 (ip), vehicle: water). Further, the T/C under setting [11] is 109 % of control and 87 % of control; the T/C (dose: 200.0 mg/kg/injection, schedule: Q04DX003 (ip), vehicle: saline with Tween-80) is 97 % of control and 102 % of control; the T/C under setting [12] is 87 % of control and 88 % of control; the T/C (dose: 400.0 mg/kg/injection, schedule: Q04DX003 (ip), vehicle: saline with Tween-80) is 88 % of control.

In the case of `CCC(=O)C(CCN(C)C)(c1ccccc1)c1ccccn1` (stereo not given), the T/C by setting is: (dose: 44.0 mg/kg/injection, schedule: Q01DX Z (ip), vehicle: saline) 98 % of control; (dose: 66.0 mg/kg/injection, schedule: Q01DX Z (ip), vehicle: saline) 104 % of control.

As for `O=c1[nH]c2cc([N+](=O)[O-])ccc2c2ccc(Cl)cc12`, the T/C by setting is: under setting [9], 102 % of control; (dose: 200.0 mg/kg/injection, schedule: Q01DX001 (ip), vehicle: carboxymethylcellulose (CMC)) 91 % of control; under setting [3], 95 % of control.

For the molecule `O=C1OC(c2cccc(Cl)c2)=N/C1=C\c1ccc2c(c1)OCO2`, the T/C under setting [10] was 95 % of control, the T/C under setting [11] was 89 % of control and the T/C under setting [12] is 92 % of control.

Consider `c1ccc2[nH]c(N3CCOCC3)nc2c1`, for which the T/C (dose: 50.0 mg/kg/injection, schedule: Q01DX009 (ip), vehicle: saline with Tween-80) was 100 % of control; the T/C (dose: 100.0 mg/kg/injection, schedule: Q01DX009 (ip), vehicle: saline with Tween-80) was 107 % of control; the T/C (dose: 100.0 mg/kg/injection, schedule: Q04DX003 (ip), vehicle: saline) is 96 % of control; the T/C (dose: 200.0 mg/kg/injection, schedule: Q01DX009 (ip), vehicle: saline with Tween-80) was 96 % of control; the T/C (dose: 200.0 mg/kg/injection, schedule: Q04DX003 (ip), vehicle: saline) is 97 % of control; the T/C (dose: 400.0 mg/kg/injection, schedule: Q04DX003 (ip), vehicle: saline) is 103 % of control.

As for `Cc1cccc(C)c1NC(=S)Nc1ccccc1`, the T/C is, setting by setting: (dose: 100.0 mg/kg/injection, schedule: Q04DX002 (ip), vehicle: Klucel (hydroxypropylcellulose) (HPC)) 101 % of control; (dose: 200.0 mg/kg/injection, schedule: Q04DX002 (ip), vehicle: Klucel (hydroxypropylcellulose) (HPC)) 105 % of control; (dose: 400.0 mg/kg/injection, schedule: Q04DX002 (ip), vehicle: Klucel (hydroxypropylcellulose) (HPC)) 90 % of control.

With `CC1=CC(=O)OC2(C1)CC1CCC2CN1C` (stereo not given), the T/C runs as follows: under setting [2], 95 % of control; (dose: 100.0 mg/kg/injection, schedule: Q01DX001 (ip), vehicle: saline) 101 % of control.
